{"source": "patent US8097773B2", "about": "“Process for selecting banana clones and banana clones obtained thereby” (Rahan Meristem (1998) Ltd, priority 2004, dated 2012)", "format_in_all_cases": "in vivo, Musa acuminata AAA, cv. 'Grande Naine'", "key": {"[1]": {"test_system": "normal in-vitro banana Grande Naine plantlets", "assay": "Influence of GA3 on internode length of in-vitro banana plantlets (GA sensitivity bioassay), normal", "conditions": "GA3 10 mg/L in medium, grown 5 weeks, hormone-free control 14.2", "protocol": "(§1) Somaclonal variants with both high and low sensitivity to GA were generated as a consequence of an extensive duration in tissue culture. Both ‘off-types’ were detectable by a relatively simple bioassay developed in this laboratory (Table 4). […] On the other hand the ‘Extra Dwarf’ phenotype was insensitive to the presence of GA in the medium.\n(§2) Meristem culture was performed on a single ‘Grande Naine’ clone employing a standard protocol used at Rahan Meristem. The meristems were sub-cultured extensively (23 cycles) to induce somaclonal variations. The in vitro plantlets were transferred to a stage III medium containing 10 ppm of gibberellic acid (GA). […] Further analysis of somaclonal variation was carried out in ex-vitro conditions. Following acclimatization, the plants were planted in 5 L pots and placed in a poly-ethylene covered greenhouse for approximately 16 weeks prior to selection of ‘off-types’. Candidate plants showing distinct somaclonal variations were selected and used for further analysis. Stability of the different mutations was monitored following the growth of the selected clones in a commercial plantation in Rosh Hanikra, Israel."}, "[2]": {"test_system": "Dwarf mutant banana Grande Naine plantlets", "assay": "Influence of GA3 on internode length of in-vitro banana plantlets (GA sensitivity bioassay), Dwarf", "protocol": "as §1, §2"}, "[3]": {"test_system": "Extra dwarf mutant banana Grande Naine plantlets", "assay": "Influence of GA3 on internode length of in-vitro banana plantlets (GA sensitivity bioassay), Extra dwarf", "protocol": "as §1, §2"}}, "data": [{"molecule": "C=C1C[C@]23C[C@@]1(O)CC[C@H]2[C@@]12C=C[C@H](O)[C@@](C)(C(=O)O1)[C@H]2[C@@H]3C(=O)O", "note": "[GA3, gibberellic acid]", "values": [{"measurement": "\"internode\" length", "setting": "[1]", "value": 21.7, "unit": "a cm"}, {"measurement": "\"internode\" length", "setting": "[2]; Dwarf plantlets, GA3 10 mg/L in medium, grown 5 weeks, hormone-free control 10.8", "value": 14.9, "unit": "b cm"}, {"measurement": "sensitivity to GA", "setting": "[2]; dwarf genotype, GA in the medium", "value": "showed sensitivity"}, {"measurement": "sensitivity to GA", "setting": "[3]; 'Extra Dwarf' phenotype, GA in the medium", "value": "insensitive"}, {"measurement": "\"internode\" length", "setting": "[3]; Extra dwarf mutant plantlets, GA3 10 mg/L in medium, grown 5 weeks, hormone-free control 9.6", "value": 9.6, "unit": "cm·days"}]}]}
